Laboratory results reported in paper PMC4052943 (BioMed Research International, 2014).
Like-named read-outs stand apart in the source and are kept apart here.

How the values were obtained:
[1] = system: Salmonella typhimurium TA100
Protocol: (§1) In the preincubation experiment, test compounds and mutagen, each having a volume of 0.1 mL of varying concentrations, were preincubated at 37°C for 30 min and then 0.1 mL of 1 × 10^7 CFU/mL density of the bacterial culture was added, followed by the addition of 2.5 mL of top agar at 45°C (containing 0.5% NaCl and 0.6% agar) supplemented with 0.5 mM histidine-biotin. […] The combined solutions were vortexed and poured onto minimal glucose plates (40% glucose solution and Vogel Bonner medium). The plates were incubated at 37°C for 48 h and the numbers of histidine-independent revertants colonies were scored.
(§2) Survival of the bacteria was routinely monitored for each experiment. Parallel controls were run with compounds alone at all concentrations to test the possible toxicity. The concentrations of the test samples for investigating the antimutagenicity were 50, 100, 200, and 500 μM. […] All the test samples and mutagens were dissolved in DMSO (final conc., 0.01%). […] Plates were set up in triplicate for each concentration and the entire experiment was repeated three times. Inhibition of mutagenicity was expressed as percentage decrease of reverse mutation and calculated as (1) Percent inhibition=[(a−b)/(a−c)]×100, where a = number of histidine revertants induced by mutagen, b = number of histidine revertants induced by mutagen in the presence of test compound, and c = number of revertants induced in negative control.

[2] = system: Salmonella typhimurium TA97a; assay: Ames antimutagenicity assay (preincubation); settings: for inhibition at 50 µM / inhibition at 100 µM / inhibition at 250 µM / inhibition at 500 µM: Salmonella enterica, TYPHIMURIUM;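 as to all read-outs here: compound and mutagen preincubated together 30 min at 37 °C before adding bacteria, then plated on minimal glucose agar for 48 h and His+ revertant colonies counted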
Protocol: as §1, §2

[3] = system: Salmonella typhimurium TA98
Protocol: as §1, §2

O=C1O[C@H]2[C@@H]3OC(=O)c4cc(O)c(O)c(O)c4-c4c(O)c(O)c5oc(=O)c6c(c(O)c(O)c7oc(=O)c4c5c76)-c4c(cc(O)c(O)c4O)C(=O)OC[C@H]3OC(O)[C@@H]2OC(=O)c2cc(O)c(O)c(O)c2-c2c1cc(O)c(O)c2O (mixture of isomers) [Punicalagin]
Number of His+ revertants colonies/plate ([1]; Salmonella typhimurium): 175.3 ± 14.3 colonies/plate
Number of His+ revertants colonies/plate ([1]; TA 100, 50 μM alone (negative control), 2AF tables): 136.0 ± 11.7 colonies/plate
Number of His+ revertants colonies/plate ([1]; TA 100, 50 μM alone (negative control), BP tables): 136.0 ± 11.7 colonies/plate
Number of His+ revertants colonies/plate ([1]; TA 100, 50 μM alone (negative control), MMS tables): 189.7 ± 12.0 colonies/plate
Number of His+ revertants colonies/plate ([1]; TA 100, 50 μM alone (negative control), NaN3 tables): 189.7 ± 12.0 colonies/plate
Number of His+ revertants colonies/plate ([1]; TA 100, 100 μM alone (negative control), 2AF tables): 162.7 ± 15.0 colonies/plate
Number of His+ revertants colonies/plate ([1]; TA 100, 100 μM alone (negative control), BP tables): 162.7 ± 15.0 colonies/plate
Number of His+ revertants colonies/plate ([1]; TA 100, 100 μM alone (negative control), MMS tables): 181.0 ± 7.4 colonies/plate
Number of His+ revertants colonies/plate ([1]; TA 100, 100 μM alone (negative control), NaN3 tables): 181.0 ± 7.4 colonies/plate
Number of His+ revertants colonies/plate ([1]; TA 100, 250 μM alone (negative control), BP tables): 175.3 ± 14.3 colonies/plate
Number of His+ revertants colonies/plate ([1]; TA 100, 250 μM alone (negative control), MMS tables): 165.3 ± 5.4 colonies/plate
Number of His+ revertants colonies/plate ([1]; TA 100, 250 μM alone (negative control), NaN3 tables): 165.3 ± 5.4 colonies/plate
Number of His+ revertants colonies/plate ([1]; TA 100, 500 μM alone (negative control), 2AF tables): 191.0 ± 15.0 colonies/plate
Number of His+ revertants colonies/plate ([1]; TA 100, 500 μM alone (negative control), BP tables): 191.0 ± 15.0 colonies/plate
Number of His+ revertants colonies/plate ([1]; TA 100, 500 μM alone (negative control), MMS tables): 187.7 ± 9.8 colonies/plate
Number of His+ revertants colonies/plate ([1]; TA 100, 500 μM alone (negative control), NaN3 tables): 187.7 ± 9.8 colonies/plate
inhibition at 50 µM ([2]; read-out: % inhibition of mutagenicity, TA 97a, 50 μM + 2AF, S9): 15.7%
inhibition at 50 µM ([2]; read-out: % inhibition of mutagenicity, TA 97a, 50 μM + BP, S9): 15.1%
inhibition at 50 µM ([2]; read-out: % inhibition of mutagenicity, TA 97a, 50 μM + MMS, no S9): 10.2%
inhibition at 50 µM ([2]; read-out: % inhibition of mutagenicity, TA 97a, 50 μM + NaN3, no S9): 10.2%
inhibition at 100 µM ([2]; read-out: % inhibition of mutagenicity, TA 97a, 100 μM + 2AF, S9): 37.1%
inhibition at 100 µM ([2]; read-out: % inhibition of mutagenicity, TA 97a, 100 μM + BP, S9): 34.3%
inhibition at 100 µM ([2]; read-out: % inhibition of mutagenicity, TA 97a, 100 μM + MMS, no S9): 19.9%
inhibition at 100 µM ([2]; read-out: % inhibition of mutagenicity, TA 97a, 100 μM + NaN3, no S9): 34.2%
inhibition at 250 µM ([2]; read-out: % inhibition of mutagenicity, TA 97a, 250 μM + BP, S9): 53.5%
inhibition at 250 µM ([2]; read-out: % inhibition of mutagenicity, TA 97a, 250 μM + MMS, no S9): 42.4%
inhibition at 250 µM ([2]; read-out: % inhibition of mutagenicity, TA 97a, 250 μM + NaN3, no S9): 54.9%
inhibition at 500 µM ([2]; read-out: % inhibition of mutagenicity, TA 97a, 500 μM + 2AF, S9): 78.5%
inhibition at 500 µM ([2]; read-out: % inhibition of mutagenicity, TA 97a, 500 μM + BP, S9): 76.7%
inhibition at 500 µM ([2]; read-out: % inhibition of mutagenicity, TA 97a, 500 μM + MMS, no S9): 72%
inhibition at 500 µM ([2]; read-out: % inhibition of mutagenicity, TA 97a, 500 μM + NaN3, no S9): 74.4%
Number of His+ revertants colonies/plate ([2]; TA 97a, 50 μM + 2AF, S9): 304.7 ± 19.8 colonies/plate
Number of His+ revertants colonies/plate ([2]; TA 97a, 50 μM + BP, S9): 645.3 ± 28.7 colonies/plate
Number of His+ revertants colonies/plate ([2]; TA 97a, 50 μM + MMS, no S9): 418.3 ± 11.7 colonies/plate
Number of His+ revertants colonies/plate ([2]; TA 97a, 50 μM + NaN3, no S9): 244.3 ± 6.7 colonies/plate
Number of His+ revertants colonies/plate ([2]; TA 97a, 100 μM + 2AF, S9): 270.3 ± 10.1 colonies/plate
Number of His+ revertants colonies/plate ([2]; TA 97a, 100 μM + BP, S9): 538.3 ± 28.9 colonies/plate
Number of His+ revertants colonies/plate ([2]; TA 97a, 100 μM + MMS, no S9): 390.7 ± 10.2 colonies/plate
Number of His+ revertants colonies/plate ([2]; TA 97a, 100 μM + NaN3, no S9): 221.0 ± 7.1 colonies/plate
Number of His+ revertants colonies/plate ([2]; TA 97a, 250 μM + BP, S9): 431.0 ± 18.4 colonies/plate
Number of His+ revertants colonies/plate ([2]; TA 97a, 250 μM + MMS, no S9): 326.0 ± 7.8 colonies/plate
Number of His+ revertants colonies/plate ([2]; TA 97a, 250 μM + NaN3, no S9): 202.3 ± 8.7 colonies/plate
Number of His+ revertants colonies/plate ([2]; TA 97a, 500 μM + 2AF, S9): 220.0 ± 9.3 colonies/plate
Number of His+ revertants colonies/plate ([2]; TA 97a, 500 μM + BP, S9): 316.0 ± 17.6 colonies/plate
Number of His+ revertants colonies/plate ([2]; TA 97a, 500 μM + MMS, no S9): 251.0 ± 9.0 colonies/plate
% inhibition of mutagenicity ([2]; TA 97a, 500 μM + MMS, no S9, 500 µM): 72.1%
Number of His+ revertants colonies/plate ([2]; TA 97a, 500 μM + MMS, no S9, listed as PC): 251 colonies/plate
Number of His+ revertants colonies/plate ([2]; TA 97a, 500 μM + NaN3, no S9): 195.0 ± 10.8 colonies/plate
Number of His+ revertants colonies/plate ([3]; Salmonella typhimurium): 31.0 ± 1.7 colonies/plate
Number of His+ revertants colonies/plate ([3]; TA 98, 50 μM alone (negative control), 2AF tables): 40.7 ± 2.9 colonies/plate
